The values below come from ChEMBL document CHEMBL1124964, “Synthesis, structure, and antiparasitic activity of sulfamoyl derivatives of ribavirin” (1990).

Type in all cases: functional
Assay [1] relates to Leishmania donovani. Kind of assay: % Suppression = 100 - 100(LDUs of experimental / LDUs of control).
Assay [2] relates to Leishmania donovani. Kind of assay: % […] = 100 - 100(LDUs of experimental / LDUs of control).
Assay [3] deals with Mus musculus. Kind of assay: In vivo LDUs (Leishmania Donovan Units) in liver of mouse at a dose of 10 mg/kg/day.
The test system of assay [4] is Mus musculus. The experiment in a line: In vivo LDUs (Leishmania Donovan Units) in liver of mouse at a dose of 20 mg/kg/day.
In assay [5] the test system is Mus musculus. Kind of assay: In vivo LDUs (Leishmania Donovan Units) in liver of mouse at a dose of 50 mg/kg/day.
The subject of assay [6] is Trypanosoma cruzi. Kind of assay: In vitro antiparasitic activity against Trypanosoma cruzi was determined. To be noted: read-out: ED50 (the source's name).
Assay [7] has as its system Trypanosoma brucei gambiense. The experiment in a line: In vitro antiparasitic activity against Trypanosoma gambiense was determined. To be noted: read-out: ED50 (the source's name).
Assay [8] concerns Trichomonas vaginalis. Kind of assay: In vitro antiparasitic activity against […] was determined. To be noted: read-out: ED50 (the source's name).
Assay [9] relates to Giardia intestinalis. The experiment in a line: In vitro antiparasitic activity against Giardia lamblia was determined. The note with it: Giardia duodenalis; read-out: ED50 (the source's name).
For assay [10], the system named is Leishmania donovani. Kind of assay: In vitro antiparasitic activity against Leishmania donovani was determined. To be noted: read-out: ED50 (the source's name).
Assay [11] concerns Leishmania donovani. The experiment in a line: % Suppression = 100 - 100(LDUs of experimental / LDUs of control) at.
The species entered for assay [12] is Mus musculus. The experiment in a line: LDUs (Leishmania Donovan Units) in liver The liver parasite burden expressed as Leishmania Donovanii units.
Assay [13] is filed under the species Mus musculus. Kind of assay: LDUs (Leishmania Donovan Units) in liver The liver parasite burden expressed as Leishmania Donovanii units at.
For assay [14], the system named is Trypanosoma brucei. Kind of assay: In vivo antiparasitic activity against Trypanosoma brucei was tested at 10 mg/kg. Range of survival of mice; 4-11.
Assay [15] deals with Trypanosoma brucei. Kind of assay: In vivo antiparasitic activity against Trypanosoma brucei was tested at 1 mg/kg. Range of survival of mice; 4-5.
Assay [16] concerns Trypanosoma brucei. The experiment in a line: In vivo antiparasitic activity against Trypanosoma brucei was tested at 20 mg/kg. Range of survival of mice; 4-11.
Assay [17] concerns Trypanosoma brucei. Kind of assay: In vivo antiparasitic activity against Trypanosoma brucei was tested at 50 mg/kg (i.v.). Range of survival of mice; 4-12. The note with it: route intravenous.
Assay [18] relates to Trypanosoma brucei. Kind of assay: In vivo antiparasitic activity against Trypanosoma brucei was tested at 50 mg/kg (p.o.). Range of survival of mice; 10-14. The note with it: route oral.
The test system of assay [19] is Trypanosoma brucei. Kind of assay: In vivo antiparasitic activity against Trypanosoma brucei was tested at 50 mg/kg. Range of survival of mice; 10-4.
Assay [20] relates to Trypanosoma brucei. Kind of assay: In vivo antiparasitic activity against Trypanosoma brucei was tested at 5 mg/kg. Range of survival of mice; 4-6.
Assay [21] relates to Trypanosoma brucei. Kind of assay: In vivo antiparasitic activity against Trypanosoma brucei was tested. Range of survival of mice.
For assay [22], the system named is Trypanosoma brucei. The experiment in a line: In vivo antiparasitic activity against Trypanosoma brucei was tested at 20 mg/kg. Average survival time of the mice taken in this experiment.
Assay [23] relates to Trypanosoma brucei. The experiment in a line: In vivo antiparasitic activity against Trypanosoma brucei was tested at 50 mg/kg (i.v.). Average survival time of the mice taken in this experiment. The note with it: route intravenous.
The subject of assay [24] is Trypanosoma brucei. The experiment in a line: In vivo antiparasitic activity against Trypanosoma brucei was tested at 50 mg/kg (p.o.). Average survival time of the mice taken in this experiment. The note with it: route oral.
Assay [25] concerns Trypanosoma brucei. Kind of assay: In vivo antiparasitic activity against Trypanosoma brucei was tested at 50 mg/kg. Average survival time of the mice taken in this experiment.
In assay [26] the test system is Trypanosoma brucei. The experiment in a line: In vivo antiparasitic activity against Trypanosoma brucei was tested at 5 mg/kg. Average survival time of the mice taken in this experiment.
Assay [27] has as its system Trypanosoma brucei. Kind of assay: In vivo antiparasitic activity against Trypanosoma brucei was tested. Average survival time of the mice taken in this experiment.
Assay [28] has as its system Trypanosoma brucei. The experiment in a line: In vivo antiparasitic activity against Trypanosoma brucei was tested at 10 mg/kg. Percent of mice cured after administering the compound.
Assay [29] concerns Trypanosoma brucei. Kind of assay: In vivo antiparasitic activity against Trypanosoma brucei was tested at 1 mg/kg Percent of mice cured after oral administration.
The test system of assay [30] is Trypanosoma brucei. The experiment in a line: In vivo antiparasitic activity against Trypanosoma brucei was tested at 20 mg/kg. Percent of mice cured after administering the compound.
Assay [31] concerns Trypanosoma brucei. Kind of assay: In vivo antiparasitic activity against Trypanosoma brucei was tested at 50 mg/kg (i.v.).. Percent of mice cured after administering the compound. The note with it: route intravenous.
In assay [32] the test system is Trypanosoma brucei. Kind of assay: In vivo antiparasitic activity against Trypanosoma brucei was tested at 50 mg/kg (p.o.). Percent of mice cured after administering the compound. The note with it: route oral.
Assay [33] has as its system Trypanosoma brucei. Kind of assay: In vivo antiparasitic activity against Trypanosoma brucei was tested at 50 mg/kg. Percent of mice cured after administering the compound.
The subject of assay [34] is Trypanosoma brucei. The experiment in a line: In vivo antiparasitic activity against Trypanosoma brucei was tested at 5 mg/kg. Percent of mice cured after administering the compound.
Assay [35] has as its system Trypanosoma brucei. The experiment in a line: In vivo antiparasitic activity against Trypanosoma brucei was tested. Percent of mice cured after administering the compound.
The subject of assay [36] is Trypanosoma brucei. Kind of assay: In vivo antiparasitic activity against Trypanosoma brucei was tested at 10 mg/kg. Average survival time of the mice taken in this experiment.
Assay [37] has as its system Trypanosoma brucei. Kind of assay: In vivo antiparasitic activity against Trypanosoma brucei was tested at 1 mg/kg. Average survival time of the mice was determined.
Assay [38] relates to Mus musculus. Kind of assay: In vivo antiparasitic activity against Trypanosoma brucei was tested at 25 mg/kg. Average survival time of the mice was determined.
Assay [39] concerns Mus musculus. Kind of assay: In vivo antiparasitic activity against Trypanosoma brucei was tested at […]. Percent of mice cured after oral administration.
For assay [40], the system named is Mus musculus. Kind of assay: In vivo antiparasitic activity against Trypanosoma brucei was tested at […]. Range of survival of mice.

Each structure is given as a SMILES string. Values after ≈ are worked out from the molar mass of the structure shown. Values joined by “and” are separate entries in the source; they are usually repeats but may differ in a detail not shown here. Equal values may be shown once.

Consider `NC(=S)c1ncn(C2O[C@H](COS(N)(=O)=O)[C@@H](O)[C@H]2O)n1` (stereo partly specified), for which the Suppression in assay [1] and in [2] was 0% throughout. Further, the Activity is listed as 1039 in assay [3], 1143 in assay [4] and 1514 in [5]. The EC50 in assay [6] is greater than 50 µg/mL; in assay [7], 0.5 µg/mL (≈ 1.47 µM); in assay [8], 15 µg/mL (≈ 44.2 µM); in [9], greater than 25 µg/mL; in assay [10], 2.5 µg/mL (≈ 7.37 µM).

For `NC(=O)c1ncn(C2O[C@H](COS(N)(=O)=O)[C@@H](O)[C@H]2O)n1` (stereo partly specified), the Suppression in [1] was 50% and 67%; in [11], 18%. Besides, the Activity is 765 and 501 in assay [12]; 1244 in [13]. Also, the EC50 in assay [6] was greater than 50 µg/mL; in assay [7], 0.01 µg/mL (≈ 0.0309 µM); in assay [8], greater than 25 µg/mL; in assay [9], 10 µg/mL (≈ 30.9 µM); in assay [10], 0.03 µg/mL (≈ 0.0928 µM). Besides, the Range of survival in assay [14] is 4; in assay [15], 4; in assay [16] it was 4; in assay [17] it was 4; in assay [18] it was 10; in assay [19], 4. For the same compound, the Range of survival was determined as 4 in [20] and 5 in assay [21]. The Average survival was 7.4 days in [22]; 6.4 days in assay [23]; 11.6 days in assay [24]; 6.4 days in [25]; 4.8 days in assay [26]; 3.4 days in assay [27]. For the same compound, the Average survival in assay [36] was 7.4 days; in assay [37] it was 4.6 days. In addition, the Cured in [28], in assay [29], in assay [30], in assay [31], in [32] and in assay [33] was 0% in each case. Further, the Cured in assay [34] and in [35] was 0% each time.

`O=C1N=CN=C2C1N=CC2[C@@H]1O[C@H](CO)[C@@H](O)[C@H]1O` (stereo partly specified): the Average survival in assay [38] turned out to be 35 days. In assay [39], this compound gave a Cured of 100%. The same compound showed a Range of survival in [40] of 35.

For `N#Cc1ncn(C2O[C@H](COS(N)(=O)=O)[C@@H](O)[C@H]2O)n1` (stereo partly specified), the EC50 in assay [6] was greater than 50 µg/mL; in [7], 1 µg/mL (≈ 3.28 µM); in assay [8], greater than 25 µg/mL; in assay [9], greater than 25 µg/mL; in [10], 1 µg/mL (≈ 3.28 µM).
